Like-named read-outs stand apart in the source and are kept apart here.
Key:
[1] = tested on: IFNγ-induced NO production in RAW 264.7 cells; assay: Nitric Oxide Suppression Assay (IFNγ-induced NO, Griess nitrite readout); assay type: cell-based, mouse; conditions: for IC50: Mus musculus; for Avg NO IC50 Relative to RTA402 (fold): Table 2, ratio to RTA402
Procedure: Tissue Culture: RAW 264.7, a mouse macrophage cell line, was obtained from American Type Culture Collection (Manassas VA) and maintained in the log phase of growth in Roswell Park Memorial Institute Medium 1640 (RPMI 1640) supplemented with 10% heat inactivated fetal bovine serum and 1% penicillin-streptomycin. Cells were cultured and maintained in a humidified incubator at 37° C. under 5% C02. Cells were sub-cultured every 2-4 days. All cell culture supplies were obtained from Life Technologies (Grand Island, NY) and VWR (Radnor, PA).
Nitric Oxide Suppression Assay. RAW 264.7 cells were plated 1 day in advance of experimental treatments at a concentration of 30,000 cells per well onto Falcon-96 well clear bottom plates (Corning, NY) in a total volume of 200 μL per well using RPMI 1640 supplemented with 0.5% fetal bovine serum and 1% penicillin-streptomycin. The next day, cells were pretreated with compounds serially diluted from 1000×stocks. All compounds were dissolved in dimethyl sulfoxide (DMSO) usually at 10 mM stock solutions. Compounds were subsequently diluted in DMSO and RPMI 1640. Each well received a final concentration of 0.1% DMSO. Cells were pretreated for 2 hours and incubation at 37° C., followed by treatment with 20 ng/mL of interferon gamma (R&D Systems, Minneapolis, MN) per well for 24 hours. The next day, a nitrite standard was serially diluted from 100 μM to 1.6 μM in RPMI 1640. Afterwards, 50 μL of cell culture supernatant was transferred from each well into a new Falcon-96 well clear bottom plate. Nitrite was measured as surrogate for nitric oxide using Promega's Griess Detection Kit #G2930 (Madison, WI) which involves the addition of 50 μL of the provided sulfanilamide solution to each well of the transferred cell culture supernatant and standards, followed by a 10-minute incubation at room temperature. Next, 50 μL of the provided N-1-napthylethylenediamine dihydrochloride (NED) solution was added to the sulfanilamide reaction and incubated for 10 minutes at room temperature in the dark. Afterwards, air bubbles were removed using ethanol vapor and absorbance was measured using a Spectramax M2e plate reader with a wavelength set to 525 nm. Viability was assessed using WST-1 cell proliferation reagent from Roche (Basel, Switzerland). After media was removed for the Nitric Oxide suppression assay, 15 μL of WST-1 reagent was added to each well of cells. Plates were briefly mixed on an orbital shaker and the cells were incubated at 37° C. for 30-90 minutes. Absorbance was measured using a Spectramax M2e plate reader with wavelengths set to 440 nm and 700 nm.
For the ability of compounds to suppress the increase in nitric oxide release caused by interferon gamma, the absolute amount of nitrite that was produced in each well was extrapolated from the nitrite standards using a linear regression fit. All values were then normalized to the DMSO-interferon gamma treated wells and plotted as percent nitric oxide. IC50 values were calculated using Excel and/or GraphPad Prism (San Diego, CA).

[2] = tested on: Nrf2 / ARE-dependent luciferase in AREc32 reporter cell line; assay: AREc32 luciferase reporter activation (Nrf2 induction); assay type: cell-based, human; conditions: for EC (2-fold): Homo sapiens, Arec32; for Relative Avg AREc32 EC2X Relative to RTA402 (fold): ratio to RTA402
Procedure: Effect on Ludferase Reporter Activation. Nrf2 is a transcription factor that binds to the antioxidant response element (ARE) sequence in the promoter regions of its target genes. AREc32 reporter cell line (derived from human breast carcinoma MCF7 cells) was obtained was from CXR Bioscience Limited (Dundee, UK) and cultured in DMEM (low glucose) supplemented with 10% FBS, 1% penicillin/streptomycin, and 0.8 mg/ml Geneticin (G418). This cell line is stably transfected with a luciferase reporter gene under the transcriptional control of eight copies of the rat GSTA2 ARE sequence (5′-GTGACAAAGCA-3′) (Wang et al., 2006). Expression of Firefly luciferase from this reporter plasmid is controlled by binding of Nrf2 to these ARE sequences. Measurement of ARE-dependent luciferase activity allows quantitative assessment of Nrf2 induction. AREc32 cell line has previously been used in studies characterizing different Nrf2 activators (Dinkova-Kostova & Wang, 2011; Roubalová et al., 2016; Roubalová et al, 2017; Wu et al, 2012).
The effect of several compounds disclosed herein on luciferase reporter activation was assessed in the AREc32 reporter cell line (see Table 10 and Table 11). This cell line is derived from human breast carcinoma MCF-7 cells and is stably transfected with a luciferase reporter gene under the transcriptional control of eight copies of the antioxidant response element from the rat Gsta2 gene, an Nrf2 target gene (Frilling et al., 1990). AREc32 cells were plated in black 96-well plates in 200 μL media at 20,000 cells per well. Twenty-four hours after plating, cells were treated with vehicle (DMSO) or test compounds at concentrations ranging from 0.03 to 1000 nM for nineteen hours. Media was removed and 100 μL of 1:1 mixture of the One-Glo Luciferase assay reagent and culture medium was added to each well. After incubation for 5 min at room temperature, the luminescence signal was measured on a PHERAstar plate reader. The EC2X value was determined using Excel and GraphPad Prism software. The fold increase in luminescence signal for cells treated with each concentration of compound relative to cells treated with vehicle was determined and a dose-response curve was generated. The dose-response curve was fit using nonlinear regression analysis and used to extrapolate the EC2X value. The EC2X value is defined as the concentration of test compound required to increase the luminescence signal 2-fold above levels in vehicle-treated samples.

[3] = RAW264.7, Table 2, RAW 264.7 cells, 2 h pretreatment, 20 ng/mL interferon gamma 24 h, read-out: Avg NO IC50 (nM) (Mean ± SD)
[4] = Table 2, concentration increasing luminescence 2-fold above vehicle, 19 h treatment, read-out: Avg AREc32 EC2X (nM) (Mean ± SD)
[5] = RAW264.7, Table 3, ursolic acid derivatives, read-out: Avg NO IC50 (nM) (Mean ± SD)
[6] = Table 3, ursolic acid derivatives, read-out: Avg ARE EC-2X (nM) (Mean ± SD)
[7] = RAW264.7, Table 3, oleanolic acid derivative analogs, read-out: Avg NO IC50
[8] = Table 3, oleanolic acid derivative analogs, read-out: Avg ARE EC-2X

SMILES | IC50 [1, 3] | Avg NO IC50 Relative to RTA402 (fold) [1] | IC50 [1, 5] | IC50 [1, 7] | EC (2-fold) [2, 4] | Relative Avg AREc32 EC2X Relative to RTA402 (fold) ([2]; Table 2) | EC (2-fold) [2, 6] | EC (2-fold) [2, 8]
C[C@@H]1[C@H]2[C@H]3C(=O)C=C4[C@@]5(C)C=C(C#N)C(=O)C(C)(C)[C@@H]5CC[C@@]4(C)[C@]3(C)CC[C@@]2(CN(C)C(=O)C(F)F)CC[C@H]1C [Compound T39] | 10.4 ± 2.6 nM | 3.38 ± 0.68 fold | – | – | 9.58 ± 2.31 nM | 0.799 ± 0.095 fold | – | –
CC1(C)CC[C@]2(CN3CCOC3=O)CC[C@]3(C)[C@H](C(=O)C=C4[C@@]5(C)C=C(C#N)C(=O)C(C)(C)[C@@H]5CC[C@]43C)[C@@H]2C1 [CC41, reference compound] | – | – | – | 1.7 nM | – | – | – | 5.12 nM
C[C@@H]1[C@H]2[C@H]3C(=O)C=C4[C@@]5(C)C=C(C#N)C(=O)C(C)(C)[C@@H]5CC[C@@]4(C)[C@]3(C)CC[C@@]2(c2nc(CO)no2)CC[C@H]1C [Compound T10] | 2.08 ± 0.14 nM | 1.45 ± 0.28 fold | 2.08 ± 0.14 nM | – | 2.4 ± 0.3 nM | 0.193 ± 0.024 fold | 2.4 ± 0.3 nM | –
C[C@@H]1[C@H]2[C@H]3C(=O)C=C4[C@@]5(C)C=C(C#N)C(=O)C(C)(C)[C@@H]5CC[C@@]4(C)[C@]3(C)CC[C@@]2(CC(=O)N2CCC2)CC[C@H]1C [Compound T93] | 5.69 ± 1.93 nM | 3.06 ± 1.70 fold | – | – | 4.24 ± 0.66 nM | 0.525 ± 0.129 fold | – | –
C[C@@H]1[C@H]2[C@H]3C(=O)C=C4[C@@]5(C)C=C(C#N)C(=O)C(C)(C)[C@@H]5CC[C@@]4(C)[C@]3(C)CC[C@@]2(CN2CCOC2)CC[C@H]1C [Compound T42] | 38.2 ± 10 nM | 14.80 ± 6.91 fold | 38.2 ± 10 nM | – | 26.3 ± 6 nM | 2.43 ± 0.39 fold | 26.3 ± 6 nM | –
CC1(C)CC[C@]2(CNCCO)CC[C@]3(C)[C@H](C(=O)C=C4[C@@]5(C)C=C(C#N)C(=O)C(C)(C)[C@@H]5CC[C@]43C)[C@@H]2C1 [CC40, reference compound] | – | – | – | 7.5 nM | – | – | – | 21.8 nM
COC(=O)N[C@]12CC[C@@H](C)[C@H](C)[C@H]1[C@H]1C(=O)C=C3[C@@]4(C)C=C(C#N)C(=O)C(C)(C)[C@@H]4CC[C@@]3(C)[C@]1(C)CC2 [Compound T66] | 11 ± 3 nM | 4.64 ± 0.70 fold | – | – | 9.91 ± 0.25 nM | 0.857 ± 0.057 fold | – | –
C[C@@H]1[C@H]2[C@H]3C(=O)C=C4[C@@]5(C)C=C(C#N)C(=O)C(C)(C)[C@@H]5CC[C@@]4(C)[C@]3(C)CC[C@@]2(CN2CCNC2=O)CC[C@H]1C [Compound T45] | 8.79 ± 2.72 nM | 3.22 ± 0.99 fold | – | – | 6.14 ± 1.47 nM | 0.563 ± 0.065 fold | – | –
[2H]C([2H])([2H])C(=O)N(C)C[C@]12CC[C@@H](C)[C@H](C)[C@H]1[C@H]1C(=O)C=C3[C@@]4(C)C=C(C#N)C(=O)C(C)(C)[C@@H]4CC[C@@]3(C)[C@]1(C)CC2 [Compound T37] | 5.76 ± 1.38 nM | 2.08 ± 0.31 fold | – | – | 6.04 ± 2.15 nM | 0.486 ± 0.047 fold | – | –

Further lines, with some results ahead:

IC50 [1, 3] | Avg NO IC50 Relative to RTA402 (fold) [1] | IC50 [1, 5] | IC50 [1, 7] | SMILES | EC (2-fold) [2, 4] | Relative Avg AREc32 EC2X Relative to RTA402 (fold) ([2]; Table 2) | EC (2-fold) [2, 6] | EC (2-fold) [2, 8]
11.5 ± 2.6 nM | 3.77 ± 0.33 fold | 11.5 ± 2.6 nM | – | Cc1cn(C[C@]23CC[C@@H](C)[C@H](C)[C@H]2[C@H]2C(=O)C=C4[C@@]5(C)C=C(C#N)C(=O)C(C)(C)[C@@H]5CC[C@@]4(C)[C@]2(C)CC3)nn1 [Compound T49] | 7.97 ± 0.73 nM | 0.643 ± 0.116 fold | 7.97 ± 0.73 nM | –
22.1 ± 4.2 nM | 14.60 ± 0.59 fold | – | – | CCNC(=O)CC[C@]12CC[C@@H](C)[C@H](C)[C@H]1[C@H]1C(=O)C[C@@H]3[C@@]4(C)C=C(C#N)C(=O)C(C)(C)[C@@H]4CC[C@@]3(C)[C@]1(C)CC2 [Compound T103] | 43.1 ± 10.4 nM | 4.52 ± 0.90 fold | – | –
1.86 ± 0.32 nM | 1.25 ± 0.21 fold | 1.86 ± 0.32 nM | – | C[C@@H]1[C@H]2[C@H]3C(=O)C=C4[C@@]5(C)C=C(C#N)C(=O)C(C)(C)[C@@H]5CC[C@@]4(C)[C@]3(C)CC[C@@]2(CO)CC[C@H]1C [Compound T13] | 4.95 ± 0.63 nM | 0.358 ± 0.016 fold | 4.95 ± 0.63 nM | –
– | – | – | 0.4 nM | CCC(=O)NC[C@]12CCC(C)(C)C[C@H]1[C@H]1C(=O)C=C3[C@@]4(C)C=C(C#N)C(=O)C(C)(C)[C@@H]4CC[C@@]3(C)[C@]1(C)CC2 [CC23, reference compound] | – | – | – | 2.37 nM
7.66 ± 1.52 nM | 3.67 ± 1.40 fold | – | – | COC(C)c1noc([C@]23CC[C@@H](C)[C@H](C)[C@H]2[C@H]2C(=O)C=C4[C@@]5(C)C=C(C#N)C(=O)C(C)(C)[C@@H]5CC[C@@]4(C)[C@]2(C)CC3)n1 (stereo partly shown) [Compound T6] | 11.8 ± 1.9 nM | 1.03 ± 0.01 fold | – | –
9.81 ± 2.79 nM | 3.18 ± 0.30 fold | 9.81 ± 2.79 nM | – | C[C@@H]1[C@H]2[C@H]3C(=O)C=C4[C@@]5(C)C=C(C#N)C(=O)C(C)(C)[C@@H]5CC[C@@]4(C)[C@]3(C)CC[C@@]2(Cn2ccnn2)CC[C@H]1C [Compound T50] | 8.26 ± 1.39 nM | 0.666 ± 0.148 fold | 8.26 ± 1.39 nM | –
25.5 ± 4.1 nM | 7.42 ± 3.56 fold | – | – | CCNC(=O)N[C@]12CC[C@@H](C)[C@H](C)[C@H]1[C@H]1C(=O)C=C3[C@@]4(C)C=C(C#N)C(=O)C(C)(C)[C@@H]4CC[C@@]3(C)[C@]1(C)CC2 [Compound T65] | 12.9 ± 2 nM | 1.14 ± 0.20 fold | – | –
– | – | – | 8.6 nM | CC1(C)CC[C@]2(CN3NCCC3=O)CC[C@]3(C)[C@H](C(=O)C=C4[C@@]5(C)C=C(C#N)C(=O)C(C)(C)[C@@H]5CC[C@]43C)[C@@H]2C1 [CC54, reference compound] | – | – | – | 11.7 nM
